Legend:
Type in all cases: cell-based
[1] = test system: P. aeruginosa strain PAO1; experiment: Biofilm prevention screen (96-well microplate, crystal violet); conditions: Pseudomonas aeruginosa, positive = prevention, negative = enhancement of biofilm formation, quadruplicate, read-out: average percentage reduction of biofilm formed relative to DMSO controls
How it was run: (§1)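 Each strain grown in its own modified medium (PAO1: R2A, no Mg^2+, 0.3–0.5% fructose, 3 μM ferrous ammonium sulfate; ATCC 13525: R2A with pyruvate; ATCC 35984: ¼ TSB, 1% fructose). Compounds at three final concentrations (e.g. 250–500, 160, 32 μM), shaken 16–26 h at 30° C. (pseudomonads) or 37° C. (S. epidermidis). Crystal violet A586; % biofilm reduction versus DMSO, quadruplicate means.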

[2] = test system: P. fluorescens strain ATCC 13525; experiment: as above; conditions: Pseudomonas fluorescens, positive = prevention, negative = enhancement of biofilm formation, quadruplicate, read-out: average percentage reduction of biofilm formed relative to DMSO controls; for inhibition at 32 µM: ATCC13525, 32 μM; for inhibition at 160 µM: ATCC13525, 160 μM; for inhibition at 390 µM: ATCC13525, 390 μM
How it was run: as §1

[3] = test system: S. epidermidis strain ATCC 35984; experiment: as above; conditions: Staphylococcus epidermidis, positive = prevention, negative = enhancement of biofilm formation, quadruplicate, read-out: average percentage reduction of biofilm formed relative to DMSO controls; for inhibition at 32 µM: ATCC35984, 32 μM; for inhibition at 160 µM: ATCC35984, 160 μM; for inhibition at 390 µM: ATCC35984, 390 μM
How it was run: as §1

[4] = test system: P. aeruginosa strain PAO1; experiment: Improved biofilm dispersion screen (already-formed biofilms, crystal violet); conditions: Pseudomonas aeruginosa, 30 mM NaOH step, positive = dispersion, negative = enhancement of pre-existing biofilm, quadruplicate, read-out: average percentage reduction of biofilm relative to the two control values (dispersion)
How it was run: (§2)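 Biofilms pre-grown 24 h without compound, then given fresh medium with compound at 390 μM for another 22–26 h. NaOH wash in PBS (0 mM S. epidermidis, 20 mM P. fluorescens, 30 mM P. aeruginosa; 30 min, room temperature), then crystal violet staining. Percent biofilm reduction calculated against t0 and DMSO t24 controls, quadruplicates; negative values mean enhancement.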

[5] = test system: P. fluorescens strain ATCC 13525; experiment: as above; conditions: Pseudomonas fluorescens, ATCC13525, 20 mM NaOH step, positive = dispersion, negative = enhancement of pre-existing biofilm, quadruplicate, read-out: average percentage reduction of biofilm relative to the two control values (dispersion)
How it was run: as §2

[6] = test system: S. epidermidis strain ATCC 35984; experiment: as above; conditions: Staphylococcus epidermidis, ATCC35984, no NaOH, positive = dispersion, negative = enhancement of pre-existing biofilm, quadruplicate, read-out: average percentage reduction of biofilm relative to the two control values (dispersion)
How it was run: as §2

SMILES	inhibition at 32 µM [1] [%]	inhibition at 160 µM [1] [%]	inhibition at 390 µM [1] [%]	inhibition at 32 µM [2] [%]	inhibition at 160 µM [2] [%]	inhibition at 390 µM [2] [%]	inhibition at 32 µM [3] [%]	inhibition at 160 µM [3] [%]	inhibition at 390 µM [3] [%]	inhibition at 390 µM [4] [%]	inhibition at 390 µM [5] [%]	inhibition at 390 µM [6] [%]
CCCCCCNC(=O)[C@H]1CCCN1C(=O)OC(C)(C)C [Compound 153]	-9	-6	-4	7	4	-3	-8	-7	-17	-7	1	-10
CCCCCCCCNC(=O)[C@H]1CCCN1 [Compound 164]	6	11	12	8	7	54	-8	-1	-35	38	47	-3
CCCCCCNC(=O)[C@@H]1CCCN1C(=O)OC(C)(C)C [Compound 10]	-7	-16	-16	-1	-5	-6	-18	-17	-25	-9	-2	-6
CCCCCCCCNC(=O)[C@@H]1CCCN1 [Compound 31]	-37	-125	-44	3	5	52	-7	-1	-27	21	32	-11
CCCCCCNC(=O)[C@@H]1CCN1C(=O)OC(C)(C)C [Compound 283]	-7	-10	0	3	-1	13	-3	-10	-23	-11	0	-11
CCCCCCCCNC(=O)[C@@H]1CCCCN1 [Compound 20]	-16	-22	15	-16	-14	40	1	1	-59	46	25	0
CCCCCCCCNC(=O)[C@@H]1CCN1C(=O)OC(C)(C)C [Compound 284]	2	-10	-12	4	21	-2	-4	-33	56	-79	-15	0
CCCCCCCCNC(=O)[C@H]1CCCN1C(=O)OC(C)(C)C [Compound 154]	-1	-9	-15	4	10	11	-16	-42	52	-63	10	0
CCCCNC(=O)[C@@H]1CCCN1C(=O)OC(C)(C)C [Compound 155]	-5	2	6	10	4	4	-3	-1	21	-12	3	-4
CCCCNC(=O)[C@H]1CCCN1 [Compound 162]	-9	-13	-9	7	1	11	-4	-8	-47	-23	0	0
